Test results taken from patent US20210260069A1, “IRE1a INHIBITOR IN COMBINATION WITH CANCER [sequence] AGENT FOR CANCER TREATMENT” (Fosun Orinove PharmaTech, Inc., priority 2018, published 2021).

Tests used:
RPMI 8226 tumor cells = experiment: Intratumoral XBP-1 spliced effect in Velcade treated RPMI xenografts; assay type: in vivo, Nude mice; conditions: Orin 1001 30 mg/kg PO on Day 27 in Velcade treated mice, tumor taken four hours later
Protocol: The mice were treated again on the 24th day with Velcade®. On Day 27, the mice were treated with Orin 1001 at 30 mg/kg PO, four hours later the mice were sacrificed as in Example 25, and tumor tissues were isolated. In a similar way as described for the liver PD test in Example 25, RNA extraction and RT-PCR analysis gave the results as shown FIG. 13.
BALB/c mice were injected intraperitoneally with 100 microliters at an equivalent dose of 1 mg/kg tunicamycin solution. Two hours after tunicamycin injection, mice were dosed with compound of interest either PO or IV. Following 2 hours for PO delivery of compound, mice were euthanized according to IACUC protocols using CO2 from a […] source. A 1 cm^3 fragment of the liver for homogenization and extraction of the RNA were collected for further analysis. Total RNA is harvested from cells or tissue using TRIzol according to the manufacturer's procedures. After ethanol precipitation and resuspension of the RNA, RiboGreen (Invitrogen) is used to quantify the yield and normalize the RNA concentration in the source tube containing isolated RNA. RT-PCR is performed by Oligo(dT) priming, and SuperScript II (Invitrogen) transcription using the Amplitaq Gold Kit (Applied Biosystems) according to the manufacturer's protocols. […]

[1] = system: human breast adenocarcinoma MDA-MB231 tumor cells; assay type: in vivo
Protocol: Orin 1001 was administered by oral gavage in combination with paclitaxel in a xenograft mouse model using female NCr nu/nu mice (n=10 in each group) injected subcutaneously with human breast adenocarcinoma MDA-MB231 tumor cells. To evaluate the effect of Orin 1001 in combination with paclitaxel, Orin 1001 was administered via oral gavage at 75, 150 or 300 mg/kg/day in combination with paclitaxel at 10 mg/kg iv, weekly (n=10/group) for up to 60 days.

human liver HUH-7 cells = experiment: Subcutaneous HUH-7 liver cancer xenograft model, survival (Example 23); assay type: in vivo, Female BALB/c nude mice
Protocol: Female BALB/c nude mice were subcutaneously inoculated with human liver HUH-7 cells (from JCRB) to establish a xenograft model of liver cancer. The scheduled administration cycle was 28 days. Animals were assigned into 4 groups (n=10/group): one vehicle group, two single treatment groups (Orin 1001 administered at 80 mg/kg/day q.d. for 28 days; Sorafenib administered following a dose regimen of 18.25 mg/kg/day q.d. for 5 days, then 25 mg/kg/day q.d. for 3 days, and then 45 mg/kg/day q.d. for 20 days, consecutively) and one combination treatment group (sorafenib administered following a dose regimen of 18.25 mg/kg/day q.d. for 5 days, then 25 mg/kg/day q.d. for 3 days, and then 45 mg/kg/day q.d. for 20 days, consecutively, whilst combined with Orin 1001 administered q.d. at a dose of 80 mg/kg/day for 28 days). All vehicle or administration treatments were given via oral gavage. Sorafenib was formulated with Kolliphor® EL/ethanol (2/1, v/v) and water. Orin 1001 was dissolved with cellulose microcrystalline and sucrose in purified water to form as suspension. The mice were euthanized if a tumor volume achieved over 2000 mm^3. Otherwise the experiment ended on the 6th day after the last administration.

7-day toxicity study = assay type: in vivo; conditions: cynomolgus monkey

COc1cc2c(C)c(CC(=O)N3CCOCC3)c(=O)oc2c(C=O)c1O [Orin 1001]
inhibition of activated IRE1 (intratumoral XBP1s) (RPMI 8226 tumor cells): can inhibit the activity of the activated IRE1 | clinical signs of toxicity ([1]; 75, 150 or 300 mg/kg/day oral gavage with paclitaxel 10 mg/kg iv weekly, up to 60 days): no clinical signs of toxicity | tolerability of extended oral dosing ([1]; up to 60 consecutive days): well tolerated | Median Survival Time (MST) (human liver HUH-7 cells; Orin 1001 80 mg/kg/day q.d. 28 days, sorafenib 18.25/25/45 mg/kg, Kaplan-Meier): 20 days | ILS (%) (increase of life span) (human liver HUH-7 cells; versus vehicle group (group 1)): 0% | 5-fold safety margin (7-day toxicity study): 750 mg/kg/day | NOAEL at 7 day (7-day toxicity study; in vivo, read-out: No Observable Adverse Effect Level (NOAEL)): 150 mg/kg/day
